{
  "source": "patent US8354415B2",
  "about": "“Thienopyrimidine compounds and compositions” (Vernalis (R&D) Ltd., priority 2007, dated 2013)",
  "data": [
    {"target": "T1, human adenosine A2B receptors (Homo sapiens, UniProt P29275)", "T1 construct": "expressed in transfected cells", "T1 sequence (P29275 1-332)": "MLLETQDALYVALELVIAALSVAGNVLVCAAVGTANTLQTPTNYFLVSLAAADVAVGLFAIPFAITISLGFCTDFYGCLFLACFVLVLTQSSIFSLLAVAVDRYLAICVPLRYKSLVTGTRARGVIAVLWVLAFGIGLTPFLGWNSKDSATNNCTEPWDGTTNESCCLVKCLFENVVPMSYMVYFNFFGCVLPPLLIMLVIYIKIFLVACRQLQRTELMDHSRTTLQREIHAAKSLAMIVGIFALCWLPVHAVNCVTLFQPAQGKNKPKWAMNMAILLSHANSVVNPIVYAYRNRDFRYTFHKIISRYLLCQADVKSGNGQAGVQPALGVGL", "test": "FLIPR calcium flux assay, adenosine A2B receptor expressing cells", "assay_type": "cell-based", "conditions": "expressed human adenosine A2B receptors in mammalian cell lines, activity range", "method": "The use of a Fluorometric Imaging Plate Reader (FLIPR) to measure calcium flux in Adenosine-receptor expressing cells is a well-established technique. In this assay calcium flux is triggered by receptor activation and measured through the fluorescence of an incorporated calcium-sensitive dye. The potencies shown were determined using expressed human adenosine A2B receptors in mammalian cell lines. Selectivity values were obtained by using mammalian cell lines expressing the human adenosine A1, A2A, and A3 receptors. Compound potency was determined from dose response curves and are reported as IC50 values.", "units": {"IC50": "nM"}, "values": [
      {"smiles": "CC(Nc1nc(C(=O)N2CCCC2)c2sccc2n1)c1cccnc1", "note": "(racemic) [Example 7, [2-(1-Pyridin-3-yl-ethylamino)-thieno[3,2-d]pyrimidin-4-yl]-pyrrolidin-1-yl-methanone]", "IC50": "> 500"},
      {"smiles": "CCNC(=O)c1nc(NCc2cccnc2)nc2ccsc12", "note": "[Example 8, 2-[(Pyridin-3-ylmethyl)-amino]-thieno[3,2-d]pyrimidine-4-carboxylic acid ethylamide]", "IC50": "> 500"},
      {"smiles": "O=C(c1nc(NCc2cccnc2)nc2ccsc12)N1CCCC1", "note": "[Example 9, {2-[(Pyridin-3-ylmethyl)-amino]-thieno[3,2-d]pyrimidin-4-yl}-pyrrolidin-1-yl-methanone]", "IC50": "< 500"},
      {"smiles": "O=C(NC1CC1)c1nc(NCc2cccnc2)nc2ccsc12", "note": "[Example 10, 2-[(Pyridin-3-ylmethyl)-amino]-thieno[3,2-d]pyrimidine-4-carboxylic acid cyclopropylamide]", "IC50": "> 500"},
      {"smiles": "CC(C)NC(=O)c1nc(NCc2cccnc2)nc2ccsc12", "note": "[Example 11, 2-[(Pyridin-3-ylmethyl)-amino]-thieno[3,2-d]pyrimidine-4-carboxylic acid isopropylamide]", "IC50": "< 500"},
      {"smiles": "O=C(NC1CCCC1)c1nc(NCc2cccnc2)nc2ccsc12", "note": "[Example 12, 2-[(Pyridin-3-ylmethyl)-amino]thieno[3,2-d]pyrimidine-4-carboxylic acid cyclopentylamide]", "IC50": "> 500"},
      {"smiles": "CNC(=O)c1nc(NCc2cccnc2)nc2ccsc12", "note": "[Example 13, 2-[(Pyridin-3-ylmethyl)-amino]-thieno[3,2-d]pyrimidine-4-carboxylic acid methylamide]", "IC50": "> 500"},
      {"smiles": "O=C(NCCc1ccccc1)c1nc(NCc2cccnc2)nc2ccsc12", "note": "[Example 14, 2-[(Pyridin-3-ylmethyl)-amino]-thieno[3,2-d]pyrimidine-4-carboxylic acid phenethyl-amide]", "IC50": "< 500"},
      {"smiles": "O=C(NC1CCCCC1)c1nc(NCc2cccnc2)nc2ccsc12", "note": "[Example 15, 2-[(Pyridin-3-ylmethyl)-amino]-thieno[3,2-d]pyrimidine-4-carboxylic acid cyclohexylamide]", "IC50": "< 500"},
      {"smiles": "O=C(NCc1ccccc1)c1nc(NCc2cccnc2)nc2ccsc12", "note": "[Example 16, 2-[(Pyridin-3-ylmethyl)-amino]-thieno[3,2-d]pyrimidine-4-carboxylic acid benzylamide]", "IC50": "< 500"},
      {"smiles": "COCCNC(=O)c1nc(NCc2cccnc2)nc2ccsc12", "note": "[Example 17, 2-[(Pyridin-3-ylmethyl)-amino]-thieno[3,2-d]pyrimidine-4-carboxylic acid (2-methoxy-ethyl)-amide]", "IC50": "> 500"},
      {"smiles": "O=C(NCc1cccnc1)c1nc(NCc2cccnc2)nc2ccsc12", "note": "[Example 18, 2-[(Pyridin-3-ylmethyl)-amino]-thieno[3,2-d]pyrimidine-4-carboxylic acid (pyridin-3-ylmethyl)-amide]", "IC50": "> 500"},
      {"smiles": "O=C(c1nc(NCc2cccnc2)nc2ccsc12)N1CCCCC1", "note": "[Example 19, Piperidin-1-yl-{2-[(pyridin-3-ylmethyl)-amino]-thieno[3,2-d]pyrimidin-4-yl}-methanone]", "IC50": "> 500"},
      {"smiles": "CC(Nc1nc(C(=O)NC2CC2)c2sccc2n1)c1cccnc1", "note": "(centres unmarked) [Example 20, 2-(1-Pyridin-3-yl-ethylamino)-thieno[3,2-d]pyrimidine-4-carboxylic acid cyclopropylamide]", "IC50": "< 500"},
      {"smiles": "Nc1nc(C(=O)NC2CC2)c2sccc2n1", "note": "[Example 21, 2-Amino-thieno[3,2-d]pyrimidine-4-carboxylic acid cyclopropylamide]", "IC50": "> 500"},
      {"smiles": "C[C@@H](Nc1nc(C(=O)N2CCCC2)c2sccc2n1)c1cccnc1", "note": "[Example 22]", "IC50": "> 500"},
      {"smiles": "C[C@H](Nc1nc(C(=O)N2CCCC2)c2sccc2n1)c1cccnc1", "note": "[Example 23, (S)-[2-(1-Pyridin-3-yl-ethylamino)-thieno[3,2-d]pyrimidin-4-yl]-pyrrolidin-1-yl-methanone]", "IC50": "< 500"}
    ]}
  ]
}
